# How the values were obtained:
# [1] = test system: E0771-HER2 cells and primary mouse T cells; experiment: T cell-tumour cell engagement by confocal microscopy; type: cell-based
# Protocol: E0771-HER2 cells were labeled with CSFE-green and primary T cells were labelled with CFSE-red. The two cells were co-cultured and then treated with PBS or SiTE for 2 h. After that, the cells were observed by confocal imaging. T cell to T cell interactions and T cell to tumour cell interactions were counted manually by taking 10 images for quantification.
# After synthesis and characterization of the AMD-responsive SiTE, the ability of SiTE to induce tumour cell-T cell engagement and tumour cell lysis was tested (FIG. 11A). E0771-HER2 cells were incubated with primary mouse T cells at a 1:1 ratio. Cells were then treated with SiTEs at varying concentrations for 4 h and observed under confocal laser scanning microscopy (CLSM) (FIG. 11B). In the untreated control group, cancer cells and T cells were randomly distributed with few T cells and cancer cells engaged. However, in groups receiving 5 ng/mL of SiTE, ~10% of T cells were engaged with tumour cells, and this rate increased to ~90% when cells were treated with 20 ng/mL of SiTE. […] To ensure the specificity of this engagement. […] Since the SiTE contains >20 Fabs, it is possible that it may induce T cell-to-T cell engagement and induce cytokine release. […] After 24 h, mouse blood was collected and the T cell crosslinking levels and IL-6 and TNF-α levels were measured. […]
# E0771-HER2 tumour [2] = experiment: AMD-mediated in vivo disassembly of SiTE-Cy7 (Cy7 signal in tumour); design: species or system mouse; conditions: 18 h post-SiTE-Cy7, read 6 h later
# Protocol: FIGS. 19A-19C: SiTE was labeled with Cy7 dye (Cy7 was labeled on CD3 Fab) and was i.v. injected to tumour-bearing mice at 0 h. Then. PBS. […] 6 h later, mice were euthanized and the Cy7 signal in different organs and tumour was measured using IVIS. […] FIG. 19E: quantification of the fluorescence in tumour tissues in a-c. Data was shown as mean±SD (n=3), statistical differences were analyzed using two-tailed unpaired Student's t-test. […] SiTE-Cy7 was i.v. infused into tumour bearing mice at 0 h. […] After 24 h, mice were euthanized and the Cy7 signal distribution in major organs and mice body was observed. Cy7 signal was detected in the spleen, kidney and bladder.
# Next, determination as to whether AMD can be used to break down the SiTE in vivo was sought. Cy7 was modified to the CD3 Fab and the Fab assembled with HER2 Fab to formulate SiTE-Cy7. SiTE-Cy7 was i.v. injected to E0771-HER2 tumour-bearing mice at 0 h. […] Mice were euthanized 6 h later and the Cy7 signal in different organs and tumour was measured using an in vivo imaging system (IVIS). […] Most supramolecular chemistry-based strategies for controllable chemotherapeutic release have only been tested in in vitro studies, and only a few in vivo controllable drug release strategies have been reported in this space. […]
# [3] = Half-life, distribution and clearance of AMD in mice; type: in vivo; conditions: mouse; for half-life: blood, intravenous
# E0771-HER2 tumour [4] = experiment: E0771-HER2 tumour growth inhibition in C57/BL6 mice; type: in vivo, mouse; conditions: following AMD infusion after SiTE
# Excerpt: FIG. 20A: 106 E0771-HER2 cells were s.c. injected into the right flank of C57/BL6 mice. […] All mice were euthanized at day 23. FIG. 20B: images of mice from all treatment groups on day 23. FIG. 20C: tumour growth curves for different groups. Tumour tissue was isolated on Day 23 and observed for immune cell infiltration. FIG. 20D: repeat of the tumour growth inhibition experiment. FIG. 20E: mouse body weight change during the tumour inhibition experiment. FIG. 20F: percentages of CD45+, CD45+CD3+, CD45+CD3+CD4+/CD8+ cells in the tumour tissues. FIG. 20G: immunofluorescence images of the tumour tissues in different groups with cell nuclei labeled with DAPI (blue) and T cells labeled with anti-CD3 antibody (green). Scale bar: 100 μm.
# Tumour size and mouse weight were monitored.
# Minimal changes in mouse weight were observed across the different groups (FIG. 20E), likely because HER2 antigen is not expressed on normal mouse cells, preventing toxicity from on-target, off-tumour activity. At day 23, all mice were euthanized and tumour tissue was collected to determine total lymphocyte and CD3^+ T cell infiltration using flow cytometry and immunofluorescence imaging.
# Additionally, to confirm that this impact on the tumour tissue was HER2 specific, SiTE activity was evaluated in a HER2 negative E0771 tumour model (FIGS. 24A-24J).
# [5] = test system: Raji-Luc-GFP tumour cells; experiment: Humanized immune system mice with liver CD19 and Raji-Luc-GFP tumour; conditions: AMD i.v. at day 7 after SiTE
# [6] = AMD dispersed in 5% polyoxyethylene castor oil
compound,measurement,setting,value
"NC12CC3CC(CC(C3)C1)C2 [AMD, adamantan-1-amine]",separation of conjugated cells,[1]; 100 ng/mL AMD after 20 ng/mL SiTE for 4 h,~ 40%
same,separation of conjugated cells,[1]; 1 μg/mL AMD after 20 ng/mL SiTE for 4 h,~100%
same,Cy7 signal decrease compared to PBS treatment,E0771-HER2 tumour [2]; [6],over 78%
same,decrease in Cy7 signal in the tumour,E0771-HER2 tumour [2]; AMD dispersed in PBS,~46%
same,half-life,[3]; [6],~24 h
same,half-life,[3]; AMD dispersed in PBS,~9 h
same,clearance,[3]; in vivo,cleared from the urine
same,number of T cells in the tumour tissue,E0771-HER2 tumour [4],greatly decreased
same,liver enzyme and cytokine levels in blood,[5],greatly decrease the liver enzyme levels and cytokine levels in blood
